≈ marks a conversion by molar mass, not a printed value.
How the values were obtained:
[1] = Solubility of amine monomers of Formula I in water; format: physicochemical
Text: The insolubility point was reached when a distinct two separate layers was observed.

[2] = Material Safety Data Sheet from Arkema Inc for Norsocryl; cited from earlier work
[3] = 0.1 g amine monomer/100 g deionised water
[4] = 0.2 g amine monomer/100 g deionised water
[5] = 0.3 g amine monomer/100 g deionised water
[6] = 0.4 g amine monomer/100 g deionised water
[7] = 0.5 g amine monomer/100 g deionised water
[8] = 1.0 g amine monomer/100 g deionised water
[9] = 1.5 g amine monomer/100 g deionised water
[10] = 2.0 g amine monomer/100 g deionised water
[11] = 2.5 g amine monomer/100 g deionised water
[12] = 5.0 g amine monomer/100 g deionised water
[13] = 7.5 g amine monomer/100 g deionised water
[14] = 10.0 g amine monomer/100 g deionised water
[15] = 12.5 g amine monomer/100 g deionised water
[16] = 15.0 g amine monomer/100 g deionised water

Row | SMILES | solubility in water [1, 3] | solubility in water [1, 4] | solubility in water [1, 5] | solubility in water [1, 6] | solubility in water [1, 7] | solubility in water [1, 8] | solubility in water [1, 9] | solubility in water [1, 10] | solubility in water [1, 11] | solubility in water [1, 12] | solubility in water [1, 13] | solubility in water [1, 14] | solubility in water [1, 15] | solubility in water [1, 16] | solubility in water, published literature value [2] | solubility in water ([1]; estimated from Table 2) | solubility in water ([1]; quaternized monomer)
1 | C=C(C)C(=O)OCCN(CC)CC [DEAEMA, diethylaminoethyl methacrylate] | soluble | insoluble | insoluble | insoluble | insoluble | insoluble | insoluble | insoluble | insoluble | insoluble | insoluble | insoluble | insoluble | insoluble | – | – | –
2 | C=C(C)C(=O)OCCN(C(C)C)C(C)C [DPAEMA, Diisopropylaminoethyl methacrylate] | soluble | insoluble | insoluble | insoluble | insoluble | insoluble | insoluble | insoluble | insoluble | insoluble | insoluble | insoluble | insoluble | insoluble | – | – | –
3 | C=C(C)C(=O)OCCNC(C)(C)C [TBAEMA, tertiary-butylaminoethyl methacrylate] | soluble | soluble | soluble | soluble | soluble | soluble | soluble | insoluble | insoluble | insoluble | insoluble | insoluble | insoluble | insoluble | 18 mg/mL (≈ 97.2 mM) | less than 2 g/100 g water | –
4 | C=C(C)C(=O)OCC[N+](C)(CC)CC.COS(=O)(=O)[O-] [DEAEMA Quat DMS, Diethylaminoethyl methacrylate dimethyl sulphate quaternary ammonium form] | – | – | – | – | – | – | – | – | – | – | – | – | – | – | – | – | completely water soluble

From patent US11717471B2, “Hydrogel microcapsules” (ISP Investments LLC, priority 2010, dated 2023)
